These results are taken from PMC7588595, “Small-molecule active pharmaceutical ingredients of approved cancer therapeutics inhibit human aspartate/asparagine-β-hydroxylase” (Bioorganic & Medicinal Chemistry, 2020).

One test concerns the target T1, human AspH (His6-AspH315–758) (Homo sapiens, UniProt Q12797).
T1 construct: N-Terminally His6-tagged human AspH315–758 (His6-AspH315–758) was produced in Escherichia coli BL21 (DE3) cells; made in house; host or cells: Escherichia coli BL21 (DE3), pET-28a(+) vector
T1 sequence (Q12797 315-758): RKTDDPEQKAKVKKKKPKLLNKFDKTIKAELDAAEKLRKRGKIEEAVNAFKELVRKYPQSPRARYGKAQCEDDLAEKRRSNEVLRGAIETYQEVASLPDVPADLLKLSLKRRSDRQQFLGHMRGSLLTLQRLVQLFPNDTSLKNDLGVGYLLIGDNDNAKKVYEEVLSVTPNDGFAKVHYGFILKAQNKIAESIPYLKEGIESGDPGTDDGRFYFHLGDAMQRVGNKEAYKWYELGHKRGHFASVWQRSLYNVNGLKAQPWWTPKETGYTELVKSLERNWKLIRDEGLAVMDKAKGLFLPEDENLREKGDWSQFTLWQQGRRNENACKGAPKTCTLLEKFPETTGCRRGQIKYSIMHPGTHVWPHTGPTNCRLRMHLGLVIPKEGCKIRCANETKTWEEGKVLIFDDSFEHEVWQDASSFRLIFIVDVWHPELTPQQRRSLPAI
The test can be described thus: SPE-MS AspH inhibition assay (hFX-CP101-119 substrate hydroxylation). The format is biochemical. The note with it: AspH-inhibitor screening, 384-well Plate 1.
On to `COc1cc(Nc2ncc3c(n2)-c2ccc(Cl)cc2C(c2c(F)cccc2OC)=NC3)ccc1C(=O)O` [MLN8237_Alisertib], for which the “Plate 1 (% inhibition)” value turned out to be 2.09%.

For the compound `Cc1ccc(NC(=O)c2ccc(CN3CCN(C)CC3)cc2)cc1Nc1nc(-c2cccnc2)cs1` [Masitinib], the “Plate 1 (% inhibition)” value is listed as -15.10%.

Regarding `CC(=O)O[C@]1(C(C)=O)CC[C@H]2[C@@H]3C=C(C)C4=CC(=O)CC[C@]4(C)[C@H]3CC[C@@]21C` [Megestrol acetate], the “Plate 1 (% inhibition)” value is -14.51%.

Turning to `Cl.N[C@@H](Cc1ccc(N(CCCl)CCCl)cc1)C(=O)O` [Melphalan hydrochloride], the “Plate 1 (% inhibition)” value is listed as 8.23%.

As to `N[C@@H](Cc1ccc(N(CCCl)CCCl)cc1)C(=O)O` [Melphalan], the “Plate 1 (% inhibition)” value stood at 9.41%.

As for `S=c1[nH]cnc2nc[nH]c12` [Mercaptopurine], the “Plate 1 (% inhibition)” value turned out to be 7.41%.

`CN(C)C(=N)NC(=N)N.Cl` [Metformin hydrochloride aq]: the “Plate 1 (% inhibition)” value is 5.05%.

On to `CN(Cc1cnc2nc(N)nc(N)c2n1)c1ccc(C(=O)N[C@@H](CCC(=O)O)C(=O)O)cc1` [Methotrexate], for which the “Plate 1 (% inhibition)” value was determined as 15.11%.

On to `COc1c2occc2cc2ccc(=O)oc12` [Methoxsalen], for which the “Plate 1 (% inhibition)” value was 0.45%.

On to `C[C@H]1C[C@@H]2[C@H]([C@@H](O)C[C@@]3(C)[C@H]2CC[C@]3(O)C(=O)CO)[C@@]2(C)C=CC(=O)C=C12` [Methylprednisolone], for which the “Plate 1 (% inhibition)” value came out at 8.67%.

Turning to `CO[C@@]12[C@H](COC(N)=O)C3=C(C(=O)C(C)=C(N)C3=O)N1C[C@@H]1N[C@@H]12` [Mitomycin], the “Plate 1 (% inhibition)” value is recorded as 1.59%.

With `Clc1ccc(C(c2ccccc2Cl)C(Cl)Cl)cc1` (centres unmarked) [Mitotane], the “Plate 1 (% inhibition)” value is given as 14.44%.

As to `O=C1c2c(O)ccc(O)c2C(=O)c2c(NCCNCCO)ccc(NCCNCCO)c21` [Mitoxantrone], the “Plate 1 (% inhibition)” value is -29.89%.

`CC1(C)CNc2cc(NC(=O)c3cccnc3NCc3ccncc3)ccc21.O=P(O)(O)O.O=P(O)(O)O` [Motesanib Diphosphate (AMG-706)]: the “Plate 1 (% inhibition)” value is 35.35%.

The same test, now with this note: AspH-inhibitor screening, 384-well Plate 1, substrate conversion.
On to `COc1cc(Nc2ncc3c(n2)-c2ccc(Cl)cc2C(c2c(F)cccc2OC)=NC3)ccc1C(=O)O` [MLN8237_Alisertib], for which the “Plate 1 (% conversion)” value came to 48.78%.

As to `Cc1ccc(NC(=O)c2ccc(CN3CCN(C)CC3)cc2)cc1Nc1nc(-c2cccnc2)cs1` [Masitinib], the “Plate 1 (% conversion)” value was determined as 56.72%.

Turning to `CC(=O)O[C@]1(C(C)=O)CC[C@H]2[C@@H]3C=C(C)C4=CC(=O)CC[C@]4(C)[C@H]3CC[C@@]21C` [Megestrol acetate], the “Plate 1 (% conversion)” value was found to be 56.45%.

With `Cl.N[C@@H](Cc1ccc(N(CCCl)CCCl)cc1)C(=O)O` [Melphalan hydrochloride], the “Plate 1 (% conversion)” value is listed as 45.95%.

In the case of `N[C@@H](Cc1ccc(N(CCCl)CCCl)cc1)C(=O)O` [Melphalan], the “Plate 1 (% conversion)” value worked out at 45.40%.

Regarding `S=c1[nH]cnc2nc[nH]c12` [Mercaptopurine], the “Plate 1 (% conversion)” value is 46.33%.

`CN(C)C(=N)NC(=N)N.Cl` [Metformin hydrochloride aq]: the “Plate 1 (% conversion)” value amounted to 47.42%.

For the compound `CN(Cc1cnc2nc(N)nc(N)c2n1)c1ccc(C(=O)N[C@@H](CCC(=O)O)C(=O)O)cc1` [Methotrexate], the “Plate 1 (% conversion)” value stood at 42.77%.

With `COc1c2occc2cc2ccc(=O)oc12` [Methoxsalen], the “Plate 1 (% conversion)” value was determined as 49.54%.

As for `C[C@H]1C[C@@H]2[C@H]([C@@H](O)C[C@@]3(C)[C@H]2CC[C@]3(O)C(=O)CO)[C@@]2(C)C=CC(=O)C=C12` [Methylprednisolone], the “Plate 1 (% conversion)” value turned out to be 45.75%.

Consider `CO[C@@]12[C@H](COC(N)=O)C3=C(C(=O)C(C)=C(N)C3=O)N1C[C@@H]1N[C@@H]12` [Mitomycin], for which the “Plate 1 (% conversion)” value came out at 49.02%.

Regarding `Clc1ccc(C(c2ccccc2Cl)C(Cl)Cl)cc1` (centres unmarked) [Mitotane], the “Plate 1 (% conversion)” value is recorded as 43.08%.

Consider `O=C1c2c(O)ccc(O)c2C(=O)c2c(NCCNCCO)ccc(NCCNCCO)c21` [Mitoxantrone], for which the “Plate 1 (% conversion)” value amounted to 63.55%.

On to `CC1(C)CNc2cc(NC(=O)c3cccnc3NCc3ccncc3)ccc21.O=P(O)(O)O.O=P(O)(O)O` [Motesanib Diphosphate (AMG-706)], for which the “Plate 1 (% conversion)” value amounted to 33.43%.

The test is the same for the next values; noted with them: AspH-inhibitor screening, Plate 1-duplicate.
As to `COc1cc(Nc2ncc3c(n2)-c2ccc(Cl)cc2C(c2c(F)cccc2OC)=NC3)ccc1C(=O)O` [MLN8237_Alisertib], the “Plate 1-duplicate (% inhibition)” value is given as 7.11%.

On to `Cc1ccc(NC(=O)c2ccc(CN3CCN(C)CC3)cc2)cc1Nc1nc(-c2cccnc2)cs1` [Masitinib], for which the “Plate 1-duplicate (% inhibition)” value is reported as -11.47%.

As to `CC(=O)O[C@]1(C(C)=O)CC[C@H]2[C@@H]3C=C(C)C4=CC(=O)CC[C@]4(C)[C@H]3CC[C@@]21C` [Megestrol acetate], the “Plate 1-duplicate (% inhibition)” value stood at 7.27%.

As to `Cl.N[C@@H](Cc1ccc(N(CCCl)CCCl)cc1)C(=O)O` [Melphalan hydrochloride], the “Plate 1-duplicate (% inhibition)” value turned out to be 3.67%.

Consider `N[C@@H](Cc1ccc(N(CCCl)CCCl)cc1)C(=O)O` [Melphalan], for which the “Plate 1-duplicate (% inhibition)” value worked out at 3.88%.

As for `S=c1[nH]cnc2nc[nH]c12` [Mercaptopurine], the “Plate 1-duplicate (% inhibition)” value is recorded as 10.69%.

Take `CN(C)C(=N)NC(=N)N.Cl` [Metformin hydrochloride aq]: the “Plate 1-duplicate (% inhibition)” value was 7.45%.

`CN(Cc1cnc2nc(N)nc(N)c2n1)c1ccc(C(=O)N[C@@H](CCC(=O)O)C(=O)O)cc1` [Methotrexate]: the “Plate 1-duplicate (% inhibition)” value stood at 17.38%.

As for `COc1c2occc2cc2ccc(=O)oc12` [Methoxsalen], the “Plate 1-duplicate (% inhibition)” value turned out to be 1.60%.

For the compound `C[C@H]1C[C@@H]2[C@H]([C@@H](O)C[C@@]3(C)[C@H]2CC[C@]3(O)C(=O)CO)[C@@]2(C)C=CC(=O)C=C12` [Methylprednisolone], the “Plate 1-duplicate (% inhibition)” value is reported as 6.32%.

Take `CO[C@@]12[C@H](COC(N)=O)C3=C(C(=O)C(C)=C(N)C3=O)N1C[C@@H]1N[C@@H]12` [Mitomycin]: the “Plate 1-duplicate (% inhibition)” value is 2.59%.

Regarding `Clc1ccc(C(c2ccccc2Cl)C(Cl)Cl)cc1` (centres unmarked) [Mitotane], the “Plate 1-duplicate (% inhibition)” value came out at 17.86%.

For `O=C1c2c(O)ccc(O)c2C(=O)c2c(NCCNCCO)ccc(NCCNCCO)c21` [Mitoxantrone], the “Plate 1-duplicate (% inhibition)” value was -22.19%.

As for `CC1(C)CNc2cc(NC(=O)c3cccnc3NCc3ccncc3)ccc21.O=P(O)(O)O.O=P(O)(O)O` [Motesanib Diphosphate (AMG-706)], the “Plate 1-duplicate (% inhibition)” value is 26.44%.

Still in this test, the particulars now being: AspH-inhibitor screening, Plate 1-duplicate, substrate conversion.
Take `COc1cc(Nc2ncc3c(n2)-c2ccc(Cl)cc2C(c2c(F)cccc2OC)=NC3)ccc1C(=O)O` [MLN8237_Alisertib]: the “Plate 1-duplicate (% conversion)” value amounted to 48.51%.

`Cc1ccc(NC(=O)c2ccc(CN3CCN(C)CC3)cc2)cc1Nc1nc(-c2cccnc2)cs1` [Masitinib]: the “Plate 1-duplicate (% conversion)” value worked out at 57.73%.

On to `CC(=O)O[C@]1(C(C)=O)CC[C@H]2[C@@H]3C=C(C)C4=CC(=O)CC[C@]4(C)[C@H]3CC[C@@]21C` [Megestrol acetate], for which the “Plate 1-duplicate (% conversion)” value was found to be 48.44%.

Regarding `Cl.N[C@@H](Cc1ccc(N(CCCl)CCCl)cc1)C(=O)O` [Melphalan hydrochloride], the “Plate 1-duplicate (% conversion)” value is recorded as 50.22%.

For `N[C@@H](Cc1ccc(N(CCCl)CCCl)cc1)C(=O)O` [Melphalan], the “Plate 1-duplicate (% conversion)” value was 50.12%.

In the case of `S=c1[nH]cnc2nc[nH]c12` [Mercaptopurine], the “Plate 1-duplicate (% conversion)” value was 46.74%.

Regarding `CN(C)C(=N)NC(=N)N.Cl` [Metformin hydrochloride aq], the “Plate 1-duplicate (% conversion)” value amounted to 48.35%.

With `CN(Cc1cnc2nc(N)nc(N)c2n1)c1ccc(C(=O)N[C@@H](CCC(=O)O)C(=O)O)cc1` [Methotrexate], the “Plate 1-duplicate (% conversion)” value was found to be 43.42%.

Turning to `COc1c2occc2cc2ccc(=O)oc12` [Methoxsalen], the “Plate 1-duplicate (% conversion)” value is 51.25%.

Consider `C[C@H]1C[C@@H]2[C@H]([C@@H](O)C[C@@]3(C)[C@H]2CC[C@]3(O)C(=O)CO)[C@@]2(C)C=CC(=O)C=C12` [Methylprednisolone], for which the “Plate 1-duplicate (% conversion)” value was found to be 48.91%.

For the compound `CO[C@@]12[C@H](COC(N)=O)C3=C(C(=O)C(C)=C(N)C3=O)N1C[C@@H]1N[C@@H]12` [Mitomycin], the “Plate 1-duplicate (% conversion)” value stood at 50.76%.

Consider `Clc1ccc(C(c2ccccc2Cl)C(Cl)Cl)cc1` (centres unmarked) [Mitotane], for which the “Plate 1-duplicate (% conversion)” value is on record as 43.18%.

Regarding `O=C1c2c(O)ccc(O)c2C(=O)c2c(NCCNCCO)ccc(NCCNCCO)c21` [Mitoxantrone], the “Plate 1-duplicate (% conversion)” value turned out to be 63.05%.

Regarding `CC1(C)CNc2cc(NC(=O)c3cccnc3NCc3ccncc3)ccc21.O=P(O)(O)O.O=P(O)(O)O` [Motesanib Diphosphate (AMG-706)], the “Plate 1-duplicate (% conversion)” value stood at 38.93%.
